Laboratory results: ChEMBL document CHEMBL4680144, “N-thiadiazole-4-hydroxy-2-quinolone-3-carboxamides bearing heteroaromatic rings as novel antibacterial agents: Design, synthesis, biological evaluation and target identification” (Eur J Med Chem, 2020)
In brackets after ≈: the same amount, converted by molar mass.

Tests used:
Staphylococcus aureus [1] = experiment: Antibacterial activity against wild type methicillin-sensitive Staphylococcus aureus ATCC 29213 assessed as inhibition of bacterial growth incubated for 18 to 24 hrs by broth microdilution method; format: functional; conditions: time 18-24 hrs
[2] = Inhibition of Staphylococcus aureus Gyrase B using linear pBR322 DNA as substrate incubated for 30 mins in presence of ATP by ADP-Glo assay
Staphylococcus aureus [3] = experiment: Antibacterial activity against methicillin-resistant Staphylococcus aureus clinical isolate 15-1 assessed as inhibition of bacterial growth incubated for 18 to 24 hrs by broth microdilution method; format: functional; conditions: time 18-24 hrs
Staphylococcus aureus [4] = experiment: Antibacterial activity against methicillin-resistant Staphylococcus aureus clinical isolate 15-2 assessed as inhibition of bacterial growth incubated for 18 to 24 hrs by broth microdilution method; format: functional; conditions: time 18-24 hrs
Staphylococcus aureus [5] = experiment: Antibacterial activity against methicillin-resistant Staphylococcus aureus clinical isolate 15-3 assessed as inhibition of bacterial growth incubated for 18 to 24 hrs by broth microdilution method; format: functional; conditions: time 18-24 hrs
Staphylococcus aureus [6] = experiment: Antibacterial activity against methicillin-resistant Staphylococcus aureus clinical isolate 15-6 assessed as inhibition of bacterial growth incubated for 18 to 24 hrs by broth microdilution method; format: functional; conditions: time 18-24 hrs
Staphylococcus aureus [7] = experiment: Antibacterial activity against methicillin-resistant Staphylococcus aureus clinical isolate 15-7 assessed as inhibition of bacterial growth incubated for 18 to 24 hrs by broth microdilution method; format: functional; conditions: time 18-24 hrs
Staphylococcus aureus [8] = experiment: Antibacterial activity against methicillin-resistant Staphylococcus aureus clinical isolate 15-8 assessed as inhibition of bacterial growth incubated for 18 to 24 hrs by broth microdilution method; format: functional; conditions: time 18-24 hrs
Staphylococcus aureus [9] = experiment: Antibacterial activity against methicillin-resistant Staphylococcus aureus clinical isolate 15-9 assessed as inhibition of bacterial growth incubated for 18 to 24 hrs by broth microdilution method; format: functional; conditions: time 18-24 hrs
Staphylococcus aureus [10] = experiment: Antibacterial activity against methicillin resistant and vancomycin-intermediate sensitive Staphylococcus aureus ATCC 700699 assessed as inhibition of bacterial growth incubated for 18 to 24 hrs by broth microdilution method; format: functional; conditions: time 18-24 hrs
Staphylococcus aureus [11] = experiment: Antibacterial activity against methicillin resistant and vancomycin-intermediate sensitive Staphylococcus aureus ATCC 700788 assessed as inhibition of bacterial growth incubated for 18 to 24 hrs by broth microdilution method; format: functional; conditions: time 18-24 hrs
[12] = test system: Staphylococcus epidermidis; experiment: Antibacterial activity against methicillin-sensitive Staphylococcus epidermidis clinical isolate 15-3 assessed as inhibition of bacterial growth incubated for 18 to 24 hrs by broth microdilution method; format: functional; conditions: time 18-24 hrs
[13] = test system: Staphylococcus epidermidis; experiment: Antibacterial activity against methicillin-sensitive Staphylococcus epidermidis clinical isolate 15-4 assessed as inhibition of bacterial growth incubated for 18 to 24 hrs by broth microdilution method; format: functional; conditions: time 18-24 hrs
[14] = test system: Staphylococcus epidermidis; experiment: Antibacterial activity against methicillin-resistant Staphylococcus epidermidis clinical isolate 15-1 assessed as inhibition of bacterial growth incubated for 18 to 24 hrs by broth microdilution method; format: functional; conditions: time 18-24 hrs
[15] = test system: Staphylococcus epidermidis; experiment: Antibacterial activity against methicillin-resistant Staphylococcus epidermidis clinical isolate 15-2 assessed as inhibition of bacterial growth incubated for 18 to 24 hrs by broth microdilution method; format: functional; conditions: time 18-24 hrs
[16] = test system: Staphylococcus epidermidis; experiment: Antibacterial activity against methicillin-resistant Staphylococcus epidermidis clinical isolate 15-3 assessed as inhibition of bacterial growth incubated for 18 to 24 hrs by broth microdilution method; format: functional; conditions: time 18-24 hrs
Enterococcus faecalis [17] = experiment: Antibacterial activity against Enterococcus faecalis clinical isolate 15-1 assessed as inhibition of bacterial growth incubated for 18 to 24 hrs by broth microdilution method; format: functional; conditions: time 18-24 hrs
Enterococcus faecalis [18] = experiment: Antibacterial activity against Enterococcus faecalis clinical isolate 15-2 assessed as inhibition of bacterial growth incubated for 18 to 24 hrs by broth microdilution method; format: functional; conditions: time 18-24 hrs
Enterococcus faecium [19] = experiment: Antibacterial activity against Enterococcus faecium clinical isolate 15-1 assessed as inhibition of bacterial growth incubated for 18 to 24 hrs by broth microdilution method; format: functional; conditions: time 18-24 hrs
Enterococcus faecium [20] = experiment: Antibacterial activity against Enterococcus faecium clinical isolate 15-2 assessed as inhibition of bacterial growth incubated for 18 to 24 hrs by broth microdilution method; format: functional; conditions: time 18-24 hrs
Enterococcus faecalis [21] = experiment: Antibacterial activity against vancomycin-resistant Enterococcus faecalis ATCC 51299 assessed as inhibition of bacterial growth incubated for 18 to 24 hrs by broth microdilution method; format: functional; conditions: time 18-24 hrs
Enterococcus faecalis [22] = experiment: Antibacterial activity against vancomycin-resistant Enterococcus faecalis ATCC 700802 assessed as inhibition of bacterial growth incubated for 18 to 24 hrs by broth microdilution method; format: functional; conditions: time 18-24 hrs
Enterococcus faecalis [23] = experiment: Antibacterial activity against vancomycin-resistant Enterococcus faecalis ATCC 51575 assessed as inhibition of bacterial growth incubated for 18 to 24 hrs by broth microdilution method; format: functional; conditions: time 18-24 hrs

Compound `CCOc1cccc(-c2nnc(NC(=O)c3c(O)c4ccccc4n(CC)c3=O)s2)c1` has an MIC (Staphylococcus aureus [1]) of 3.12 µg/mL (≈ 7.15 µM) and an IC50 [2] of 1.69 µM.
With `CCn1c(=O)c(C(=O)Nc2nnc(-c3cccc(C)c3)s2)c(O)c2ccccc21` the MIC (Staphylococcus aureus [1]) was 12.5 µg/mL (≈ 30.8 µM) and the IC50 [2] was 1.75 µM.
With `CCn1c(=O)c(C(=O)Nc2nnc(-c3cscn3)s2)c(O)c2ccccc21` the MIC (Staphylococcus aureus [1]) was 0.78 µg/mL (≈ 1.95 µM), the MIC (Staphylococcus aureus [3]) was 4 µg/mL (≈ 10 µM) and the MIC (Staphylococcus aureus [4]) was 4 µg/mL (≈ 10 µM). The MIC (Staphylococcus aureus [5]) was 4 µg/mL (≈ 10 µM), the MIC (Staphylococcus aureus [6]) was 4 µg/mL (≈ 10 µM) and the MIC (Staphylococcus aureus [7]) was 4 µg/mL (≈ 10 µM). For the same compound, the MIC (Staphylococcus aureus [8]) was 4 µg/mL (≈ 10 µM), the MIC (Staphylococcus aureus [9]) was 4 µg/mL (≈ 10 µM) and the MIC (Staphylococcus aureus [10]) was 4 µg/mL (≈ 10 µM). For the same compound, the MIC (Staphylococcus aureus [11]) was 4 µg/mL (≈ 10 µM), the MIC [12] was 8 µg/mL (≈ 20 µM) and the MIC [13] was 4 µg/mL (≈ 10 µM). The MIC [14] was 4 µg/mL (≈ 10 µM), the MIC [15] was 8 µg/mL (≈ 20 µM) and the MIC [16] was 4 µg/mL (≈ 10 µM). It also gave an MIC (Enterococcus faecalis [17]) of 4 µg/mL (≈ 10 µM), an MIC (Enterococcus faecalis [18]) of 4 µg/mL (≈ 10 µM) and an MIC (Enterococcus faecium [19]) of 8 µg/mL (≈ 20 µM). It also gave an MIC (Enterococcus faecium [20]) of 4 µg/mL (≈ 10 µM), an MIC (Enterococcus faecalis [21]) of 32 µg/mL (≈ 80.1 µM) and an MIC (Enterococcus faecalis [22]) of 32 µg/mL (≈ 80.1 µM). For the same compound, the MIC (Enterococcus faecalis [23]) was 32 µg/mL (≈ 80.1 µM) and the IC50 [2] was 0.16 µM.
`Cn1c(=O)c(C(=O)Nc2nncs2)c(O)c2ccccc21` showed an MIC (Staphylococcus aureus [1]) of 6.25 µg/mL (≈ 20.7 µM) and an IC50 [2] of 0.19 µM.
`CCCCCCc1nnc(NC(=O)c2c(O)c3ccccc3n(CC)c2=O)s1` showed an MIC (Staphylococcus aureus [1]) of 12.5 µg/mL (≈ 31.2 µM) and an IC50 [2] of 0.35 µM.
`CCc1nnc(NC(=O)c2c(O)c3ccccc3n(CC)c2=O)s1` gave an MIC (Staphylococcus aureus [1]) of 0.78 µg/mL (≈ 2.26 µM), an MIC (Staphylococcus aureus [3]) of 2 µg/mL (≈ 5.81 µM) and an MIC (Staphylococcus aureus [4]) of 2 µg/mL (≈ 5.81 µM). For the same compound, the MIC (Staphylococcus aureus [5]) was 2 µg/mL (≈ 5.81 µM), the MIC (Staphylococcus aureus [6]) was 2 µg/mL (≈ 5.81 µM) and the MIC (Staphylococcus aureus [7]) was 1 µg/mL (≈ 2.9 µM). For the same compound, the MIC (Staphylococcus aureus [8]) was 1 µg/mL (≈ 2.9 µM), the MIC (Staphylococcus aureus [9]) was 1 µg/mL (≈ 2.9 µM) and the MIC (Staphylococcus aureus [10]) was 2 µg/mL (≈ 5.81 µM). It also gave an MIC (Staphylococcus aureus [11]) of 2 µg/mL (≈ 5.81 µM), an MIC [12] of 2 µg/mL (≈ 5.81 µM) and an MIC [13] of 2 µg/mL (≈ 5.81 µM). The MIC [14] was 2 µg/mL (≈ 5.81 µM), the MIC [15] was 2 µg/mL (≈ 5.81 µM) and the MIC [16] was 2 µg/mL (≈ 5.81 µM). For the same compound, the MIC (Enterococcus faecalis [17]) was 2 µg/mL (≈ 5.81 µM), the MIC (Enterococcus faecalis [18]) was 2 µg/mL (≈ 5.81 µM) and the MIC (Enterococcus faecium [19]) was 4 µg/mL (≈ 11.6 µM). For the same compound, the MIC (Enterococcus faecium [20]) was 2 µg/mL (≈ 5.81 µM), the MIC (Enterococcus faecalis [21]) was 8 µg/mL (≈ 23.2 µM) and the MIC (Enterococcus faecalis [22]) was 8 µg/mL (≈ 23.2 µM). The MIC (Enterococcus faecalis [23]) was 8 µg/mL (≈ 23.2 µM) and the IC50 [2] was 0.45 µM.
`CCn1c(=O)c(C(=O)Nc2nnc(-c3cccnc3)s2)c(O)c2ccccc21` gave an MIC (Staphylococcus aureus [1]) of 0.39 µg/mL (≈ 0.991 µM), an MIC (Staphylococcus aureus [3]) of 0.5 µg/mL (≈ 1.27 µM) and an MIC (Staphylococcus aureus [4]) of 0.5 µg/mL (≈ 1.27 µM). For the same compound, the MIC (Staphylococcus aureus [5]) was 0.5 µg/mL (≈ 1.27 µM), the MIC (Staphylococcus aureus [6]) was 0.5 µg/mL (≈ 1.27 µM) and the MIC (Staphylococcus aureus [7]) was 0.5 µg/mL (≈ 1.27 µM). The MIC (Staphylococcus aureus [8]) was 0.5 µg/mL (≈ 1.27 µM), the MIC (Staphylococcus aureus [9]) was 0.5 µg/mL (≈ 1.27 µM) and the MIC (Staphylococcus aureus [10]) was 1 µg/mL (≈ 2.54 µM). It also gave an MIC (Staphylococcus aureus [11]) of 1 µg/mL (≈ 2.54 µM), an MIC [12] of 2 µg/mL (≈ 5.08 µM) and an MIC [13] of 1 µg/mL (≈ 2.54 µM). For the same compound, the MIC [14] was 1 µg/mL (≈ 2.54 µM), the MIC [15] was 1 µg/mL (≈ 2.54 µM) and the MIC [16] was 1 µg/mL (≈ 2.54 µM). For the same compound, the MIC (Enterococcus faecalis [17]) was greater than 64 µg/mL, the MIC (Enterococcus faecalis [18]) was greater than 64 µg/mL and the MIC (Enterococcus faecium [19]) was greater than 64 µg/mL. It also gave an MIC (Enterococcus faecium [20]) greater than 64 µg/mL, an MIC (Enterococcus faecalis [21]) greater than 64 µg/mL and an MIC (Enterococcus faecalis [22]) greater than 64 µg/mL. For the same compound, the MIC (Enterococcus faecalis [23]) was greater than 64 µg/mL and the IC50 [2] was 0.24 µM.
With `CCn1c(=O)c(C(=O)Nc2nnc(-c3ccccc3C)s2)c(O)c2ccccc21` the MIC (Staphylococcus aureus [1]) was 50 µg/mL (≈ 123 µM) and the IC50 [2] was 3.18 µM.
For `CCn1c(=O)c(C(=O)Nc2nnc(-c3ccc([N+](=O)[O-])cc3)s2)c(O)c2ccccc21`, the MIC (Staphylococcus aureus [1]) was 50 µg/mL (≈ 114 µM) and the IC50 [2] was 1.61 µM.
